The target in this test is human F508del-CFTR (Homo sapiens, UniProt P13569, DEL508-508). Nature of the test: F508del-CFTR cell surface expression (corrector activity), DiscoveRx ß-galactosidase complementation chemiluminescence assay in recombinant U2OS cell line.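 For all read-outs here: U2OS cells co-expressing ProLink-tagged F508del-CFTR and a membrane-anchored enzyme acceptor, where more surface CFTR restores β-galactosidase activity measured by chemiluminescence.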 To be noted: U2OS cell line, 16h compound incubation; for EC50: EC50, F508del-CFTR cell surface expression, geomean values; for Emax: U2OS, in relation to the Emax of the corrector lumacaftor (=100%), arithmetic mean values.
Chain of human F508del-CFTR (P13569 with tags, fused parts or gaps DEL508-508): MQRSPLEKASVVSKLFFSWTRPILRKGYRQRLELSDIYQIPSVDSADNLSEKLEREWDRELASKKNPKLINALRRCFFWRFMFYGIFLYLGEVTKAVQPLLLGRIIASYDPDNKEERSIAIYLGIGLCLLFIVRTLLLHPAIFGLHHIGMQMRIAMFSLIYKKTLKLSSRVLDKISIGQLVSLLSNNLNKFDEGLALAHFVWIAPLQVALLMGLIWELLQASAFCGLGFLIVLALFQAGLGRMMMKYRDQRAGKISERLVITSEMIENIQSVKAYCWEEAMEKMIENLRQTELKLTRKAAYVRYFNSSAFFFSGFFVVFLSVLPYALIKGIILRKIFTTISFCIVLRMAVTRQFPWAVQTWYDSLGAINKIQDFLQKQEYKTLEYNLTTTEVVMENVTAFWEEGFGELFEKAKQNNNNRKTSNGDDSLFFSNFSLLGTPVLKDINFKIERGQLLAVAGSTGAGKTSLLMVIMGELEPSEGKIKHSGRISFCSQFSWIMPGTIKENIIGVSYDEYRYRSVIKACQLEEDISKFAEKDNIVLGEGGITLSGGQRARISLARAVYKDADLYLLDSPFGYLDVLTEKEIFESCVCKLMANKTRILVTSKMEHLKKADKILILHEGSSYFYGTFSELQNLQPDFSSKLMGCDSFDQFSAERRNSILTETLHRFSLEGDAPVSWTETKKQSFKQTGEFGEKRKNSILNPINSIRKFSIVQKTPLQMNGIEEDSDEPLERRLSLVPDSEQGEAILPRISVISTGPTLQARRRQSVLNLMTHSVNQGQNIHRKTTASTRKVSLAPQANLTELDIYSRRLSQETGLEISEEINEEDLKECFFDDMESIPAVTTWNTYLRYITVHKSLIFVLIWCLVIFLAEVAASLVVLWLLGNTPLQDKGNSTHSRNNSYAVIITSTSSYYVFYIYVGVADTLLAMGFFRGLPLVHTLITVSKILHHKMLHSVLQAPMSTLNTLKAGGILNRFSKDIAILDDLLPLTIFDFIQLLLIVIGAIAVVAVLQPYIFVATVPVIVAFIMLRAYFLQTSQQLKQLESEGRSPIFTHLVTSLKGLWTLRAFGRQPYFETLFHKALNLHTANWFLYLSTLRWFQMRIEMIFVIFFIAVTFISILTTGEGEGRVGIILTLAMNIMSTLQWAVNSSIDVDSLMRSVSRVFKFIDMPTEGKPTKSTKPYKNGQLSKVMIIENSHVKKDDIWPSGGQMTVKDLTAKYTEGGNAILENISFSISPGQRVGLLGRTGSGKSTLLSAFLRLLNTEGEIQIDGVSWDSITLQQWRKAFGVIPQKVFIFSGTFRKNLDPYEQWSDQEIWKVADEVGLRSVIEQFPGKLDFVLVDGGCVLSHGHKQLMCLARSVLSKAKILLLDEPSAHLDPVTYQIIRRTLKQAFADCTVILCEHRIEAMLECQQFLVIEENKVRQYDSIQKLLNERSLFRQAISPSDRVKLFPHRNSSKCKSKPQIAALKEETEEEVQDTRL

From patent US20240208992A1, “MACROCYCLES AS CFTR MODULATORS” (Idorsia Pharmaceuticals Ltd, priority 2021, published 2024) come the findings set out here.

Usually EC50 stands for the concentration at which the effect is half-maximal. A word on the Emax: it is the maximal effect, on the per cent scale that the assay sets.

`CCOc1cccc(CCNC(=O)[C@@H]2CC(=O)N(C)[C@@H](CC(C)C)C(=O)N(C)CC(=O)N[C@H](Cc3ccccc3)COc3cc(OC)c(OC)cc3C(=O)N2)c1` [Example 194, (3R,9S,13S)-3-benzyl-N-(3-ethoxyphenethyl)-9-isobutyl-17,18-dimethoxy-7,10-dimethyl-5,8,11,15-tetraoxo-2,3,4,5,6,7,8,9,10,11,12,13,14,15-tetradecahydrobenzo[p][1]oxa[4,7,10,14]tetraazacycloheptadecine-13-carboxamide]: the EC50 amounted to 613 nM and the Emax came to 178%.

Turning to `COc1cccc(CCNC(=O)[C@@H]2CC(=O)N(C)[C@@H](CC(C)C)C(=O)N(C)CC(=O)N[C@H](Cc3ccccc3)COc3cc(OC)c(OC)cc3C(=O)N2)c1` [Example 195, (3R,9S,13S)-3-benzyl-9-isobutyl-17,18-dimethoxy-N-(3-methoxyphenethyl)-7,10-dimethyl-5,8,11,15-tetraoxo-2,3,4,5,6,7,8,9,10,11,12,13,14,15-tetradecahydrobenzo[p][1]oxa[4,7,10,14]tetraazacycloheptadecine-13-carboxamide], the EC50 worked out at 889 nM and the maximum response (Emax) was found to be 202%.

`COc1cc2c(cc1OC)C(=O)N[C@H](C(=O)NCCc1ccccc1F)CC(=O)N(C)[C@@H](CC(C)C)C(=O)N(C)CC(=O)N[C@H](Cc1ccccc1)CO2` [Example 196, (3R,9S,13S)-3-benzyl-N-(2-fluorophenethyl)-9-isobutyl-17,18-dimethoxy-7,10-dimethyl-5,8,11,15-tetraoxo-2,3,4,5,6,7,8,9,10,11,12,13,14,15-tetradecahydrobenzo[p][1]oxa[4,7,10,14]tetraazacycloheptadecine-13-carboxamide]: the EC50 was found to be 425 nM and the Emax turned out to be 106%.

For the compound `COc1cc2c(cc1OC)C(=O)N[C@H](C(=O)NCCc1ccc(N(C)C)cc1)CC(=O)N(C)[C@@H](CC(C)C)C(=O)N(C)CC(=O)N[C@H](Cc1ccccc1)CO2` [Example 197, (3R,9S,13S)-3-benzyl-N-(4-(dimethylamino)phenethyl)-9-isobutyl-17,18-dimethoxy-7,10-dimethyl-5,8,11,15-tetraoxo-2,3,4,5,6,7,8,9,10,11,12,13,14,15-tetradecahydrobenzo[p][1]oxa[4,7,10,14]tetraazacycloheptadecine-13-carboxamide], the EC50 was found to be 579 nM and the Emax is 132%.

For `COc1cccc2c1C(=O)N[C@H](C(=O)NCCc1ccc3c(c1)OCO3)CC(=O)N(C)[C@@H](CC(C)C)C(=O)N(CCC1CCCCC1)CC(=O)N[C@H](Cc1ccccc1)CO2` [Example 198, (3R,9S,13S)-N-(2-(benzo[d][1,3]dioxol-5-yl)ethyl)-3-benzyl-7-(2-cyclohexylethyl)-9-isobutyl-16-methoxy-10-methyl-5,8,11,15-tetraoxo-2,3,4,5,6,7,8,9,10,11,12,13,14,15-tetradecahydrobenzo[p][1]oxa[4,7,10,14]tetraazacycloheptadecine-13-carboxamide], the 50% effective concentration (EC50) was found to be 195 nM and the maximal effect (Emax) turned out to be 243%.

As for `COc1cccc(CCNC(=O)[C@@H]2CC(=O)N(C)[C@@H](CC(C)C)C(=O)N(CCC3CCCCC3)CC(=O)N[C@H](Cc3ccccc3)COc3cccc(OC)c3C(=O)N2)c1` [Example 199, (3R,9S,13S)-3-benzyl-7-(2-cyclohexylethyl)-9-isobutyl-16-methoxy-N-(3-methoxyphenethyl)-10-methyl-5,8,11,15-tetraoxo-2,3,4,5,6,7,8,9,10,11,12,13,14,15-tetradecahydrobenzo[p][1]oxa[4,7,10,14]tetraazacycloheptadecine-13-carboxamide], the EC50 was found to be 230 nM and the maximal effect (Emax) was 214%.

Consider `[2H]C([2H])([2H])Oc1cccc(CCNC(=O)[C@@H]2CC(=O)N(C)[C@@H](CC(C)C)C(=O)N(CCC3CCCCC3)CC(=O)N[C@H](Cc3ccccc3)COc3cccc(OC)c3C(=O)N2)c1` [Example 200, (3R,9S,13S)-3-benzyl-7-(2-cyclohexylethyl)-9-isobutyl-16-methoxy-N-(3-(methoxy-d3)phenethyl)-10-methyl-5,8,11,15-tetraoxo-2,3,4,5,6,7,8,9,10,11,12,13,14,15-tetradecahydrobenzo[p][1]oxa[4,7,10,14]tetraazacycloheptadecine-13-carboxamide], for which the half-maximal effective concentration (EC50) came to 210 nM and the Emax was found to be 270%.

Regarding `CCOc1cccc(CCNC(=O)[C@@H]2CC(=O)N(C)[C@@H](CC(C)C)C(=O)N(CCC3CCCCC3)CC(=O)N[C@H](Cc3ccccc3)COc3cccc(OC)c3C(=O)N2)c1` [Example 201, (3R,9S,13S)-3-benzyl-7-(2-cyclohexylethyl)-N-(3-ethoxyphenethyl)-9-isobutyl-16-methoxy-10-methyl-5,8,11,15-tetraoxo-2,3,4,5,6,7,8,9,10,11,12,13,14,15-tetradecahydrobenzo[p][1]oxa[4,7,10,14]tetraazacycloheptadecine-13-carboxamide], the concentration giving a half-maximal response (EC50) was 222 nM and the Emax was 109%.

On to `COc1cccc2c1C(=O)N[C@H](C(=O)NCCc1ccc(C)cc1)CC(=O)N(C)[C@@H](CC(C)C)C(=O)N(CCC1CCCCC1)CC(=O)N[C@H](Cc1ccccc1)CO2` [Example 202, (3R,9S,13S)-3-benzyl-7-(2-cyclohexylethyl)-9-isobutyl-16-methoxy-10-methyl-N-(4-methylphenethyl)-5,8,11,15-tetraoxo-2,3,4,5,6,7,8,9,10,11,12,13,14,15-tetradecahydrobenzo[p][1]oxa[4,7,10,14]tetraazacycloheptadecine-13-carboxamide], for which the half-maximal effective concentration (EC50) was 187 nM and the Emax turned out to be 160%.

Regarding `COc1cccc2c1C(=O)N[C@H](C(=O)NCCc1ccc(N(C)C)cc1)CC(=O)N(C)[C@@H](CC(C)C)C(=O)N(CCC1CCCCC1)CC(=O)N[C@H](Cc1ccccc1)CO2` [Example 203, (3R,9S,13S)-3-benzyl-7-(2-cyclohexylethyl)-N-(4-(dimethylamino)phenethyl)-9-isobutyl-16-methoxy-10-methyl-5,8,11,15-tetraoxo-2,3,4,5,6,7,8,9,10,11,12,13,14,15-tetradecahydrobenzo[p][1]oxa[4,7,10,14]tetraazacycloheptadecine-13-carboxamide], the EC50 turned out to be 183 nM and the Emax is 134%.

`COc1cccc2c1C(=O)N[C@H](C(=O)NCCc1ccccc1F)CC(=O)N(C)[C@@H](CC(C)C)C(=O)N(CCC1CCCCC1)CC(=O)N[C@H](Cc1ccccc1)CO2` [Example 204, (3R,9S,13S)-3-benzyl-7-(2-cyclohexylethyl)-N-(2-fluorophenethyl)-9-isobutyl-16-methoxy-10-methyl-5,8,11,15-tetraoxo-2,3,4,5,6,7,8,9,10,11,12,13,14,15-tetradecahydrobenzo[p][1]oxa[4,7,10,14]tetraazacycloheptadecine-13-carboxamide]: the EC50 was 198 nM and the maximum response (Emax) amounted to 173%.

For the compound `COc1cc(CCNC(=O)[C@@H]2CC(=O)N(C)[C@@H](CC(C)C)C(=O)N(CCC3CCCCC3)CC(=O)N[C@H](Cc3ccccc3)COc3cccc(OC)c3C(=O)N2)cc(OC)c1` [Example 205, (3R,9S,13S)-3-benzyl-7-(2-cyclohexylethyl)-N-(3,5-dimethoxyphenethyl)-9-isobutyl-16-methoxy-10-methyl-5,8,11,15-tetraoxo-2,3,4,5,6,7,8,9,10,11,12,13,14,15-tetradecahydrobenzo[p][1]oxa[4,7,10,14]tetraazacycloheptadecine-13-carboxamide], the EC50 stood at 175 nM and the Emax worked out at 229%.

On to `COc1cccc2c1C(=O)N[C@H](C(=O)NCCc1cccs1)CC(=O)N(C)[C@@H](CC(C)C)C(=O)N(CCC1CCCCC1)CC(=O)N[C@H](Cc1ccccc1)CO2` [Example 206, (3R,9S,13S)-3-benzyl-7-(2-cyclohexylethyl)-9-isobutyl-16-methoxy-10-methyl-5,8,11,15-tetraoxo-N-(2-(thiophen-2-yl)ethyl)-2,3,4,5,6,7,8,9,10,11,12,13,14,15-tetradecahydrobenzo[p][1]oxa[4,7,10,14]tetraazacycloheptadecine-13-carboxamide], for which the concentration for a half-maximal effect (EC50) stood at 272 nM and the Emax stood at 164%.

`COc1ccc(CCNC(=O)[C@@H]2CC(=O)N(C)[C@@H](CC(C)C)C(=O)N(CCC3CCCCC3)CC(=O)N[C@H](Cc3ccccc3)COc3cccc(OC)c3C(=O)N2)nc1` [Example 207, (3R,9S,13S)-3-benzyl-7-(2-cyclohexylethyl)-9-isobutyl-16-methoxy-N-(2-(5-methoxypyridin-2-yl)ethyl)-10-methyl-5,8,11,15-tetraoxo-2,3,4,5,6,7,8,9,10,11,12,13,14,15-tetradecahydrobenzo[p][1]oxa[4,7,10,14]tetraazacycloheptadecine-13-carboxamide]: the EC50 was 317 nM and the Emax was 138%.

Consider `COc1cccc2c1C(=O)N[C@H](C(=O)NCCc1ccco1)CC(=O)N(C)[C@@H](CC(C)C)C(=O)N(CCC1CCCCC1)CC(=O)N[C@H](Cc1ccccc1)CO2` [Example 208, (3R,9S,13S)-3-benzyl-7-(2-cyclohexylethyl)-N-(2-(furan-2-yl)ethyl)-9-isobutyl-16-methoxy-10-methyl-5,8,11,15-tetraoxo-2,3,4,5,6,7,8,9,10,11,12,13,14,15-tetradecahydrobenzo[p][1]oxa[4,7,10,14]tetraazacycloheptadecine-13-carboxamide], for which the concentration for a half-maximal effect (EC50) amounted to 277 nM and the Emax amounted to 188%.

With `COc1cccc2c1C(=O)N[C@H](C(=O)NCCn1nc(C)cc1C)CC(=O)N(C)[C@@H](CC(C)C)C(=O)N(CCC1CCCCC1)CC(=O)N[C@H](Cc1ccccc1)CO2` [Example 209, (3R,9S,13S)-3-benzyl-7-(2-cyclohexylethyl)-N-(2-(3,5-dimethyl-1H-pyrazol-1-yl)ethyl)-9-isobutyl-16-methoxy-10-methyl-5,8,11,15-tetraoxo-2,3,4,5,6,7,8,9,10,11,12,13,14,15-tetradecahydrobenzo[p][1]oxa[4,7,10,14]tetraazacycloheptadecine-13-carboxamide], the EC50 was found to be 392 nM and the maximum response (Emax) worked out at 118%.
